Measurements: patent US20260130933A1, “PHARMACEUTICAL COMPOSITION FOR PREVENTION OR TREATMENT OF NEPHROPATHY AND/OR DIABETES MELLITUS, COMPRISING ENAVOGLIFLOZIN” (DAEWOONG PHARMACEUTICAL CO., LTD., priority 2022, published 2026)

Experiment: Example 3: phase 3 trial, enavogliflozin 0.3 mg vs dapagliflozin 10 mg once a day for 24 weeks added to metformin and gemigliptin in patients with type 2 diabetes (same endpoints, rescue drug)
Type: in vivo, human
Procedure: 1) when Metformin (≥1,000 mg/Day) was Administered at a Constant Dose for at Least 8 Weeks Prior to Pre-Visit (Pre-Screening) • Metformin (≥1,000 mg/day) and gemigliptin (50 mg/day) were co-administered during the 8-week stabilization period. […] 4) when Metformin (≥1,000 mg/Day) and Gemigliptin (50 mg/Day) were Co-Administered at Constant Doses for at Least 8 Weeks Prior to Pre-Visit (Prescreening) • Without a separate stabilization period, Pre-visit (pre-screening) was Visit 1 (screening).
Subjects who met the inclusion/exclusion criteria continued to receive metformin and gemigliptin while receiving a placebo of the clinical trial drug in a single-blind (subject-blinded) state for a 2-week run-in period.
Here, the randomized subjects were stratified according to the administration therapy (co-administration with two or less agents (one or two agents) or three or more agents) of a conventional hypoglycemic agent (before washout of another hypoglycemic agent) within 24 weeks prior to obtaining written informed consent and by an HbA1c value (<8% or ≥8%) at Visit 1 (screening) measured in the central laboratory.
The randomized subjects were administered two tablets of the clinical trial drug corresponding to each administration group once a day, and then visited the institution at weeks 6, 12, 18, and 24 during the 24-week administration period to conduct efficacy and safety assessments. In addition, during the clinical trial period, they were instructed to exercise regularly and control their diet without changing their daily life patterns.
• 1) Change in HbA1c at week 24 after administration of clinical trial drug compared to Visit 2 (randomization)
• 1) Change in HbA1c at each time point of weeks 6, 12, and 18 after administration of clinical trial drug compared to Visit 2 (randomization) • 2) Change in FPG at each time point of weeks 6, 12, 18, and 24 after administration of clinical trial drug compared to Visit 2 (randomization) • 3) Proportion of subjects achieving HbA1c<7% at each time point of weeks 6, 12, 18, and 24 after administration of clinical trial drug • 4) Proportion of subjects achieving HbA1c<6.5% at each time point of weeks 6, 12, 18, and 24 after administration of clinical trial drug • 5) Proportion of subjects achieving therapeutic response (HbA1c change (HbA1c at Visit 2—HbA1c at each evaluation time point)>0.5% or HbA1c<7% at each evaluation time point compared to Visit 2 (randomization)) at each time point of weeks 6, 12, 18, and 24 after administration of clinical trial drug • 6) Proportion of subjects achieving therapeutic response (HbA1c change (HbA1c at Visit 2—HbA1c at each evaluation time point)>0.7% or HbA1c<7% at each evaluation time point compared to Visit 2 (randomization)) at each time point of weeks 6, 12, 18, and 24 after administration of clinical trial drug • 7) Proportion of subjects achieving therapeutic response (HbA1c change (HbA1c at Visit 2—HbA1c at each evaluation time point)>1% or HbA1c<7% at each evaluation time point compared to Visit 2 (randomization)) at each time point of weeks 6, 12, 18, and 24 after administration of clinical trial drug

[1] = week 6, modified per-protocol set 1, enavogliflozin 0.3 mg vs dapagliflozin 10 mg
[2] = week 6, modified per-protocol set 1, enavogliflozin 0.3 mg, dapagliflozin 10 mg

Structure (SMILES): OC[C@H]1O[C@@H](c2cc(Cc3ccc(C4CC4)cc3)c(Cl)c3c2CCO3)[C@H](O)[C@@H](O)[C@@H]1O [Enavogliflozin, (2S,3R,4R,5S,6R)-2-(7-chloro-6 (4-cyclopropylbenzyl)-2,3-dihydrobenzofuran-4-yl)-6-(hydroxymethyl)tetrahydro-2H-pyran-3,4,5-triol]
- Incidence of adverse events or adverse drug reactions between groups (24 weeks, vs dapagliflozin): no statistically significant differences
- HbA1c, Mean (SD) (Baseline, PPS): 7.79%
- HbA1c, Median (Baseline, PPS): 7.60%
- Non-inferiority (margin 0.35) (HbA1c change at week 24, vs dapagliflozin): not inferior
- HbA1c change from baseline, ANCOVA LS mean (SE) (Week 24, PPS): −0.92 % p
- HbA1c change from baseline, Mean (SD) (Week 24, PPS): −0.93 % p
- HbA1c change from baseline, Median (Week 24, PPS): −0.83 % p
- HbA1c, Mean (SD) (Week 24, PPS): 6.86%
- HbA1c, Median (Week 24, PPS): 6.76%
- HbA1c change from baseline, LS mean difference (Week 24, PPS, enavogliflozin minus dapagliflozin): −0.06 % p
- Non-inferiority (UCI < 0.35%) in HbA1c change (Week 24, PPS, enavogliflozin vs dapagliflozin): Yes
- FPG change from baseline, LS mean (SE) (week 6): −25.96(1.42) mg/dL
- HDL-C change from baseline, LS mean (SE) (week 6): 1.96(0.57) mg/dL
- HOMA-IR change from baseline, LS mean (SE) (week 6): −0.94(0.15)
- HOMA-β change from baseline, LS mean (SE) (week 6): 8.13(3.08)
- HbA1c change from baseline, LS mean (SE) (week 6): −0.73(0.03) % p
- LDL-C change from baseline, LS mean (SE) (week 6): 2.49(1.81) mg/dL
- UACR change from baseline, LS mean (SE) (week 6): −8.76(3.43) g/kg
- UGCR change from baseline, LS mean (SE) (week 6): 58.10(2.18) mg/mg
- adiponectin change from baseline, LS mean (SE) (week 6): −0.10 (0.34) μg/mL
- body weight change from baseline, LS mean (SE) (week 6): −1.92(0.17) kg
- diastolic blood pressure change from baseline, LS mean (SE) (week 6): −2.04(0.70) mmHg
- fasting C-peptide change from baseline, LS mean (SE) (week 6): −0.05(0.02) ng/mL
- leptin change from baseline, LS mean (SE) (week 6): −1.83(0.45) ng/mL
- systolic blood pressure change from baseline, LS mean (SE) (week 6): −2.76(0.90) mmHg
- total cholesterol change from baseline, LS mean (SE) (week 6): 5.07 (1.97) mg/dL
- triglyceride change from baseline, LS mean (SE) (week 6): −6.85(4.47) mg/dL
- FPG change from baseline, LS mean difference (week 6, vs dapagliflozin): -3.24 mg/dL
- HDL-C change from baseline, LS mean difference (week 6, vs dapagliflozin): 0.83 mg/dL
- HOMA-IR change from baseline, LS mean difference (week 6, vs dapagliflozin): 0.05
- HOMA-β change from baseline, LS mean difference (week 6, vs dapagliflozin): 4.93
- HbA1c change from baseline, LS mean difference (week 6, vs dapagliflozin): −0.03 % p
- LDL-C change from baseline, LS mean difference (week 6, vs dapagliflozin): 0.57 mg/dL
- Odds ratio for achieving HbA1c<6.5% (week 6, vs dapagliflozin): 0.65
- Odds ratio for achieving HbA1c<7% (week 6, vs dapagliflozin): 1.22
- Odds ratio, therapeutic response (HbA1c change >0.5% or HbA1c<7%) (week 6, vs dapagliflozin): 1.52
- Odds ratio, therapeutic response (HbA1c change >0.7% or HbA1c<7%) (week 6, vs dapagliflozin): 1.16
- Odds ratio, therapeutic response (HbA1c change >1% or HbA1c<7%) (week 6, vs dapagliflozin): 1.38
- UACR change from baseline, LS mean difference (week 6, vs dapagliflozin): 6.09 g/kg
- UGCR change from baseline, LS mean difference (week 6, vs dapagliflozin): 12.35 mg/mg
- adiponectin change from baseline, LS mean difference (week 6, vs dapagliflozin): -0.47 µg/mL
- body weight change from baseline, LS mean difference (week 6, vs dapagliflozin): -0.13 kg
- diastolic blood pressure change from baseline, LS mean difference (week 6, vs dapagliflozin): −0.16 mmHg
- fasting C-peptide change from baseline, LS mean difference (week 6, vs dapagliflozin): -0.01 ng/mL
- leptin change from baseline, LS mean difference (week 6, vs dapagliflozin): 0.20 ng/mL
- systolic blood pressure change from baseline, LS mean difference (week 6, vs dapagliflozin): 0.73 mmHg
- total cholesterol change from baseline, LS mean difference (week 6, vs dapagliflozin): 2.45 mg/dL
- triglyceride change from baseline, LS mean difference (week 6, vs dapagliflozin): -1.46 mg/dL
- Change from baseline in HDL-C, ANCOVA LS mean difference [1]: 0.83 mg/dL
- Change from baseline in LDL-C, ANCOVA LS mean difference [1]: 0.57 mg/dL
- Change from baseline in total cholesterol, ANCOVA LS mean difference [1]: 2.45 mg/dL
- Change from baseline in triglycerides, ANCOVA LS mean difference [1]: -1.46 mg/dL
- Change from baseline in HDL-C, ANCOVA LS mean [2]: 1.96 mg/dL
- Change from baseline in HDL-C, Mean [2]: 1.90 mg/dL
- Change from baseline in HDL-C, Median [2]: 2.00 mg/dL
- Change from baseline in LDL-C, ANCOVA LS mean [2]: 2.49 mg/dL
- Change from baseline in LDL-C, Mean [2]: 2.42 mg/dL
- Change from baseline in LDL-C, Median [2]: -1.00 mg/dL
- Change from baseline in total cholesterol, ANCOVA LS mean [2]: 5.07 mg/dL
- Change from baseline in total cholesterol, Mean [2]: 4.65 mg/dL
- Change from baseline in total cholesterol, Median [2]: 3.00 mg/dL
- Change from baseline in triglycerides, ANCOVA LS mean [2]: -6.85 mg/dL
- Change from baseline in triglycerides, Mean [2]: -4.37 mg/dL
- Change from baseline in triglycerides, Median [2]: -1.00 mg/dL
- Fasting HDL-C, Mean [2]: 47.99 mg/dL
- Fasting HDL-C, Median [2]: 46.00 mg/dL
- Fasting LDL-C, Mean [2]: 73.35 mg/dL
- Fasting LDL-C, Median [2]: 68.00 mg/dL
- Fasting total cholesterol, Mean [2]: 138.43 mg/dL
- Fasting triglycerides, Mean [2]: 112.71 mg/dL
- Fasting triglycerides, Median [2]: 101.00 mg/dL
- fasting Total cholesterol, Median [2]: 134.00 mg/dL
